Measurements: patent publication US20110319790A1, “PHARMACEUTICAL COMPOSITION AND SYSTEM FOR PERMEABILIZING FETAL MEMBRANES” (B.G. NEGEV TECHNOLOGIES AND APPLICATIONS LTD., priority 2008, published 2011)

Test system: postpartum human fetal membranes
Assay: Permeability of postpartum human fetal membranes to FITC-Dextran in a vertical glass diffusion cell after incubation with a substance
Details: FIG. 8, 30 minutes incubation, FITC-Dextran 77 KDa, maternal side facing donor compartment
Procedure: The permeability of postpartum human fetal membranes (obtained from Hillel Yaffe Medical Center, Israel) upon exposure to different substances was determined. The experimental set-up used is shown schematically in FIG. 7. […] The membrane 171 was first incubated with a substance 176 added to the donor compartment 173. After 30 minutes of incubation, the substance was removed from the donor compartment 173. The donor compartment was then washed with PBS, and the donor and receiver compartments were filled with 0.01M phosphate buffered Saline (PBS) 175. 5 mL of a 0.5 mg/mL Dextran solution in PBS (average molecular weight of the Dextran 77 KDa) conjugated to the fluorescent label FITC (fluorescein isothiocyanate-Dextran)) 179 was added to the donor compartment 173. The diffusion cell 172 was protected from light in order to prevent fluorescent bleaching of the FITC. 1 mL samples were withdrawn from the receiver compartment 174 at various times with constant stirring of the receiver compartment, and the concentration of the FITC in the samples was determined spectofluorimetrically.
From the rate of increase in the concentration of the fluorescence in the receiver compartment 174, the extent of permeability enhancement of the membrane, in comparison to a control experiment was calculated.

With `CCCCN1CCCCC1C(=O)Nc1c(C)cccc1C` (stereo not shown) [bupivacaine] the “enhancement in permeability of the membrane compared to control” value (“enhancement … compared to control” for short) (substance at 0.5%) was “Enhanced permeability”.

With `CC(C)CCCCCCCCCCCCCCC(=O)O` [iso-stearic acid] the “enhancement … compared to control” value (substance at 10%) was “Enhanced permeability”.

With `CCCCCCCCCCCCOS(=O)(=O)[O-].[Na+]` [SLS, sodium lauryl sulfate] the “enhancement … compared to control” value (substance at 1%) was “Enhanced permeability”.

`CCCCCCCCCCCCCCCC[N+](C)(C)C.[Br-]` [Cetyl trimethylammonium bromide (CTAB), Cetyl trimethylammonium bromide] was tested, and the “enhancement … compared to control” value (substance at 4%) was “Enhanced permeability”.

For `CCCCCCCC/C=C\CCCCCCCC(=O)O` [Oleic acid], the “enhancement … compared to control” value (substance at 1.5%) was “Enhanced permeability”.

`CN1CCCC1=O` [N-methy-2-pyrrolidone (NMP), N-methy-2-pyrrolidone] was tested, and the “enhancement … compared to control” value (concentration not given) was “Enhanced permeability”.

In the case of `OCCO` [ethylene glycol], the “enhancement … compared to control” value (substance at 10%) is reported as “Enhanced permeability”.
